{
  "source": "patent US20050008639A1",
  "about": "“Methods of modulating homing of T cell by interruption of chemokine/chemokine receptor signaling” (priority 2003, published 2005)",
  "key": {"[1]": {"system": "islet cells / aortal endothelial cells", "experiment": "Chromium release cytotoxicity assay with IS-CD8+ effector cells", "type": "cell-based, mouse", "conditions": "for killing of endothelial cells isolated from NOD aorta by IS-CD8+ cells: 0.1 μM exogenous peptide", "procedure": "Chromium release cytotoxicity assay—Pancreatic islets or monolayers of cultured aortal endothelial cells were dispersed into single-cell suspension by incubation in cell-dissociation buffer (Sigma), labeled with 100 μCi of Na2^51CrO4 (ICN Pharmaceuticals, Costa Mesa, Calif.) in 200 μl of complete Click's medium containing 5% FCS for 2 h at 37° C., washed three times, and co-cultured for 8-12 hours in 96-well plates (10^4 targets per well in 200 μl of Click's medium with 5% FCS) with effector IS CD8^+ cells at different effector-to-target ratios with different concentrations of InsB^15-23 peptide. To confirm the cytotoxic potential of IS-CD8^+ cells, labeled P815 mastocytoma (H2^d)cells were loaded with different concentrations of InsB^15-23 peptide and used as targets in the 4 hrs cytotoxicity assay. Specific cytotoxicity was based on the measurement of ^51Cr release in 100 μl aliquots of cell-free supernatant using a gamma-counter (Wallac, Turku, Finland) and calculated using the formula: Specific Cytotoxicity (%)=[(Experimental Release−Spontaneous Release)/(Maximum Release−Spontaneous Release)]×100%."}, "[2]": {"system": "IS-CD8^+ cells adhesion to aortal endothelium from NOD mice", "experiment": "Parallel plate flow chamber adhesion assay under shear stress", "type": "cell-based, mouse", "procedure": "Primary vascular endothelium cell culture—Isolation and culture of vascular endothelium from mouse aorta was performed as described (16). Briefly, neutralized collagen extracellular matrix was aliquoted into 24-well plates, allowed to gel at 37° C. for 60 min, and equilibrated overnight with complete endothelial cell medium consisting of complete Click's medium with 20% FCS, and 50 μg/ml of Endothelial Cell Growth Supplement (Becton-Dickinson). The segments of thoracic aorta from adult NOD mice were placed endothelial-side down onto the collagen gel. Thirty-six hours later, 1 ml of complete endothelial cell medium was carefully added. After 3-5 days, the collagen gel was digested with a 0.3% collagenase H (Sigma) solution and the released cells were transferred to a T25 tissue culture flask. After reaching confluence, cells were detached by incubation with cell-dissociation buffer (Sigma), and split at a 1:3 ratio. Passage 2 to 5 cells were used for the experiments.\nParallel Plate Flow Chamber and Adhesion Assay—Aortal endothelial cells were plated on 35 mm Costar tissue culture dishes and allowed to reach confluence. The cells were then treated for 2 -3 hrs with 100 μM of InsB^15-23 or LLO^91-99 peptides in complete endothelial cell medium. In some experiments anti-K^d (SF 1-1.1) blocking mAbs were added for 20 min before the adhesion assay. The adhesion of IS-CD8^+ cells under shear stress was examined with a parallel plate flow chamber obtained from Glycotech (Rockville, Md.) following the manufacturer's instructions and as previously described (17-19). A flow chamber with a 5-mm-wide gasket was used. Negative flow pressure was generated and controlled with an automated syringe pump (Braintree Scientific, Quincy, Mass.). IS-CD8^+ cells were labeled with CFSE as described above, pretreated in some experiments with 100 ng/ml of mouse recombinant SLC (R&D Systems) in Click's medium for 30 min, and injected at a concentration of 3×10^6/ml into the flow chamber. After IS-CD8^+ cells were allowed to settle on the plate for the indicated length of time, the flow rate was increased stepwise every 10 s in increments of […] (˜4 dynes/cm^2 shear stress) to a maximum of 7.7 ml/min (corresponding to ˜24 dynes/cm^2). Lymphocyte adhesion was visualized with a Leica inverted fluorescent microscope and recorded using a Spot-RT digital camera (Diagnostic Instruments, Sterling Heights, Mich.). Images were converted into digital movies and analyzed using Metamorph software (Universal Imaging Corp., Downingtown, Pa.). Labeled IS-CD8^+ cells were counted in frames separated by equal time intervals from the start of the stress. Adhesion of cells in each frame was determined as a fraction (%) of the initial number of cells in the frame preceding the start of flow."}, "[3]": {"system": "G-protein-coupled chemokine receptors", "experiment": "Homing of PTx-treated DiI-labeled IS-CD8+ cells after injection into NOD mice", "type": "in vivo, mouse", "procedure": "Fluorescent tracing and morphometric analysis—For trafficking studies, IS-CD8^+ and control T cells were incubated at 10^7 cells /ml for 30 min at 37° C. in the dark in complete medium containing 5% FCS and 0.0075 mg/ml of fluorescent dye didodecyltetramethylindocarbocyanine perchlorate (DiI) (Molecular Probes, Eugene, Oreg.), then washed 3 times with PBS. For analysis of short-term proliferation and adhesion studies IS-CD8^+ cells were stained in vitro with fluorescent dye carboxyfluorescein diacetate succinimidyl ester (CFSE) (Molecular Probes, Eugene, Oreg.) as described (12). 10^7 of labeled IS-CD8^+ cells were injected i.v. into irradiated (725 Rad, 24 h in advance) animals. Mice were sacrificed at time points indicated, and their spleens, pancreata, lymph nodes, peripheral blood and lungs were removed, lymphocytes were isolated as described (5), stained with allophycocyanin-conjugated anti-CD8 (53-6.7) antibody (BD Pharmingen), and subjected to FACS analysis. Alternatively, organs were fixed in 0.1 M periodate-lysine-paraformaldehyde phosphate buffer, sucrose-saturated, and freeze-molded in OCT compound (Sakura Finetek Inc., Torrance, Calif.). […] Cells were counted within areas relevant to a given islet (see FIG. 1 for representative image). […]"}, "IS-CD8^+ cells": {"system": "IS-CD8^+ cells", "experiment": "PTx-treated IS-CD8+ cells cultured in vitro (viability, peptide response)", "type": "cell-based, mouse", "conditions": "24 hrs after treatment (not shown)", "procedure": "Treatment with pertussis toxin (PTx)—For treatment with PTx, IS-CD8^+ cells were harvested, resuspended at 10^7 cells/ml in complete medium containing 100 ng/ml of PTx (Sigma) and incubated for 2 h at 37° C. The final 30 min of incubation were combined with DiI-labeling. Treated cells were washed and injected into irradiated hosts or cultured under standard conditions in vitro."}},
  "note": "“Also recorded” adds a separate entry of the source.",
  "data": [
    {"molecule": "LLO^91-99 peptide: control K^d-binding listeriolysin-derived peptide (GYKDGNEYI; UniProt P13128 91-99, looked up, fragment)", "values": [
      {"measurement": "killing of endothelial cells isolated from NOD aorta by IS-CD8+ cells", "setting": "[1]", "result": "no effect"}
    ]},
    {"molecule": "LYLVCGERG [InsB^15-23 peptide, synthetic insulin B chain peptide]", "values": [
      {"measurement": "killing of endothelial cells isolated from NOD aorta by IS-CD8+ cells", "setting": "[1]", "result": "killed"},
      {"measurement": "lysis of islet β cells from H2k/d (C3D2) mice by IS-CD8+ cells", "setting": "[1]; peptide added exogenously, 50:1 effector-to-target ratio", "result": "restored"},
      {"measurement": "adhesion of the T cells to endothelial monolayers", "setting": "[2]; monolayers pre-cultivated with 100 μM peptide, no SLC, FIG. 7A", "result": "increased adhesion"},
      {"measurement": "contact time with endothelial cells prior to start of flow needed for adhesion significantly different from no-peptide control", "setting": "[2]; peptide-treated monolayers, no SLC", "result": 300, "unit": "s"}
    ]},
    {"molecule": "pertussis toxin [PTx]", "values": [
      {"measurement": "distribution of PTx-treated IS-CD8+ cells in the spleen", "setting": "[3]; NOD mice, vs untreated cells", "result": "avoided T cell zones"},
      {"measurement": "homing of PTx-treated IS-CD8+ cells to the pancreatic islets", "setting": "[3]; cells treated in vitro with 100 ng/ml PTx for 2 h, injected into NOD mice, 24 hrs after injection", "result": "abolishes; also recorded: practically absent from the islets"},
      {"measurement": "response of PTx-treated IS-CD8+ cells to InsB15-23 peptide stimulation", "setting": "IS-CD8^+ cells", "result": "responded normally"},
      {"measurement": "viability of IS-CD8+ cells treated with PTx", "setting": "IS-CD8^+ cells", "result": "did not lose their viability"}
    ]},
    {"molecule": "SLC: mouse recombinant SLC (R&D Systems), chemokine CCL21 (protein, UniProt P84444 24-133, looked up) C-C motif chemokine 21a: SDGGGQDCCLKYSQKKIPYSIVRGYRKQEPSLGCPIPAILFSPRKHSKPELCANPEEGWVQNLMRRLDQPPAPGKQSPGCRKNRGTSKSGKKGKGSKGCKRTEQTQPSRG", "values": [
      {"measurement": "time necessary for adhesion", "setting": "[2]; T cells pre-treated with 100 ng/ml SLC, endothelium with InsB15-23 peptide", "result": 90, "unit": "s"},
      {"measurement": "baseline adhesion in the absence of specific peptide", "setting": "[2]; T cells pre-treated with SLC", "result": "increased"},
      {"measurement": "fraction of adherent cells", "setting": "[2]; T cells pre-treated with SLC vs not exposed to SLC", "result": "larger"}
    ]}
  ]
}
